We go through 55 compounds from the supplement of paper PMC12317010.

Where a name gives a salt, the structure may show the parent alone.

The nature of this data set: collision cross section in nitrogen (drift tube, single-field); higher = larger gas-phase ion size.
Setting [1] is: ion type: [M-H], ion source: ESI, ion mode: Negative.
[2] abbreviates: ion type: [M+H], ion source: APCI, ion mode: Positive.
Setting [3] is: ion type: [M+H], ion source: ESI, ion mode: Positive.
Where [4] appears, read: ion type: [M+Na], ion source: ESI, ion mode: Positive.
Where [5] appears, read: ion source: ESI, ion mode: Positive, ion type: [M]+ (permanent cation).
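Note: chemical standards at 10 µM analysed by drift tube IMS-QTOF MS in about 3.95 torr nitrogen, mean of duplicate injections differing ≤1%, mass error below 10 ppm.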

Turning to `O=S(=O)(O)c1ccc2cc(O)c(S(=O)(=O)O)cc2c1` [Disodium 3-hydroxynaphthalene-2,7-disulfonate], the “collision cross section in nitrogen” value under setting [1] stood at 160.1 Å².
Consider `O=S(=O)(O)c1ccccc1C=Cc1ccc(-c2ccc(C=Cc3ccccc3S(=O)(=O)O)cc2)cc1` [Disodium 4,4'-bis(2-sulfostyryl)biphenyl], for which the “collision cross section in nitrogen” value under setting [1] amounted to 248.5 Å².
`CC(=O)OCCN(CCOC(C)=O)c1ccc(N=Nc2ccc([N+](=O)[O-])cc2C#N)cc1` [Disperse Red 82]: the “collision cross section in nitrogen” value under setting [2] is given as 213.1 Å², the “collision cross section in nitrogen” value under setting [3] is reported as 213.3 Å² and the “collision cross section in nitrogen” value under setting [4] came to 201.3 Å².
As to `CCOP(=S)(OCC)SCCS(=O)(=O)CC` [Disulfoton sulfone], the “collision cross section in nitrogen” value under setting [4] stood at 166 Å².
On the same count and under the same terms, the value for `CCCCCCCCCCCCCOC(=O)c1ccccc1C(=O)OCCCCCCCCCCCCC` [Ditridecyl phthalate (mixture of branched chain isomers)] was 244.3 Å².
For `CN(C)C(=O)Nc1ccc(Cl)c(Cl)c1` [Diuron], the “collision cross section in nitrogen” value was 151.3 Å² under setting [2], 150.9 Å² under setting [3] and 147.5 Å² under setting [1].
As for `CCCCC(CC)COC(=O)CC(C(=O)OCC(CC)CCCC)S(=O)(=O)O` (centres undefined) [Docusate sodium], under setting [1], the “collision cross section in nitrogen” value is listed as 206.1 Å².
On the same count and under the same terms, the value for `CCCCCCCCCCCCOC(C)=O` [Dodecyl acetate] was 162 Å².
With `CCCCCCCCCCCCN` [Dodecylamine hydrochloride], the “collision cross section in nitrogen” value under setting [3] stood at 164 Å².
With `CCCCCCCCCCCCc1ccc(S(=O)(=O)O)cc1` [Dodecylbenzenesulfonic acid], the “collision cross section in nitrogen” value by setting is: under setting [4], 167.4 Å²; under setting [1], 184.8 Å².
For the compound `CCCCCCCCCCCCNC(=N)N` [Dodecylguanidine acetate], the “collision cross section in nitrogen” value under setting [2] came to 175.2 Å².
Turning to `CCCCCCCCCCCC[N+](C)(C)C` [Dodecyltrimethylammonium bromide], the “collision cross section in nitrogen” value under setting [5] was determined as 175.8 Å².
With `CCCCCCCCCCCC[N+](C)(C)C` [Dodecyltrimethylammonium chloride], the “collision cross section in nitrogen” value (ion source: APCI, ion mode: Positive, ion type: [M]+ (permanent cation)) was 175.2 Å² and the “collision cross section in nitrogen” value under setting [5] came to 175.9 Å².
Take `COc1cccc2c1C(=O)c1c(O)c3c(c(O)c1C2=O)C[C@@](O)(C(=O)CO)C[C@@H]3O[C@H]1C[C@H](N)[C@H](O)[C@H](C)O1` [Doxorubicin hydrochloride]: the “collision cross section in nitrogen” value under setting [2] stood at 230.5 Å², the “collision cross section in nitrogen” value under setting [3] is on record as 230 Å², the “collision cross section in nitrogen” value under setting [4] is given as 232.8 Å² and the “collision cross section in nitrogen” value under setting [1] was 223.1 Å².
Regarding `CN(C)CCOC(C)(c1ccccc1)c1ccccn1` (centres undefined) [Doxylamine succinate], under setting [2], the “collision cross section in nitrogen” value was found to be 162 Å².
With `CCOc1ccc(NC(N)=O)cc1` [Dulcin], the “collision cross section in nitrogen” value is, setting by setting: under setting [2], 144.5 Å²; under setting [3], 144.1 Å²; under setting [4], 149.7 Å².
On to `O=C(OCC1CCC2OC2C1)C1CCC2OC2C1` (centres undefined) [ECC], for which, under setting [4], the “collision cross section in nitrogen” value came to 158 Å².
Turning to `Clc1ccc(COC(Cn2ccnc2)c2ccc(Cl)cc2Cl)cc1` (centres undefined) [Econazole nitrate], the “collision cross section in nitrogen” value by setting is: under setting [2], 185.8 Å²; under setting [3], 185.7 Å²; under setting [4], 193.2 Å².
With `O=C1Nc2ccc(Cl)cc2[C@@](C#CC2CC2)(C(F)(F)F)O1` [Efavirenz], under setting [1], the “collision cross section in nitrogen” value amounted to 168.1 Å².
Take `CN1CCN(c2ccccc2/C=C2\SCCN(c3ccc(Cl)c(Cl)c3)C2=O)CC1` [Elzasonan]: the “collision cross section in nitrogen” value runs as follows: under setting [2], 204 Å²; under setting [3], 203.8 Å²; under setting [4], 211.4 Å².
On to `Cc1cc(O)c2c(c1)C(=O)c1cc(O)cc(O)c1C2=O` [Emodin], for which, under setting [1], the “collision cross section in nitrogen” value amounted to 154.6 Å².
On the same count and under the same terms, the value for `O=S1(=O)OCC2C(CO1)C1(Cl)C(Cl)=C(Cl)C2(Cl)C1(Cl)Cl` (centres undefined) [Endosulfan sulfate] was 173.3 Å².
For `O=C(O)C1C2CCC(O2)C1C(=O)O` (centres undefined) [Endothal], the “collision cross section in nitrogen” value runs as follows: under setting [4], 140.1 Å²; under setting [1], 135.6 Å².
Turning to `O=C1OC2(c3ccccc31)c1cc(Br)c(O)c(Br)c1Oc1c2cc(Br)c(O)c1Br` [Eosin], the “collision cross section in nitrogen” value under setting [1] is given as 207.8 Å².
Turning to `Fc1ccc([C@@]2(Cn3cncn3)O[C@@H]2c2ccccc2Cl)cc1` [Epoxiconazole], the “collision cross section in nitrogen” value under setting [2] is 176.9 Å², the “collision cross section in nitrogen” value under setting [3] is recorded as 176.6 Å² and the “collision cross section in nitrogen” value under setting [4] is 191.3 Å².
As for `C[C@]12CC[C@H]3C(=CCc4cc(O)ccc43)[C@@H]1CCC2=O` [Equilin], under setting [1], the “collision cross section in nitrogen” value turned out to be 172.2 Å².
Take `CC[C@H]1OC(=O)[C@H](C)[C@@H](O[C@H]2C[C@@](C)(OC)[C@@H](O)[C@H](C)O2)[C@H](C)[C@@H](O[C@@H]2O[C@H](C)C[C@H](N(C)C)[C@H]2O)[C@](C)(O)C[C@@H](C)C(=O)[C@H](C)[C@@H](O)[C@]1(C)O` [Erythromycin]: the “collision cross section in nitrogen” value is, setting by setting: under setting [2], 258.5 Å²; under setting [3], 257.1 Å²; under setting [4], 262.9 Å².
For `C[C@]12CC[C@@H]3c4ccc(O)cc4CC[C@H]3[C@@H]1CC[C@@H]2OC(=O)CCC1CCCC1` [Estradiol cypionate], under setting [1], the “collision cross section in nitrogen” value came out at 220.4 Å².
For the compound `C[C@]12CC[C@@H]3c4ccc(O)cc4CC[C@H]3[C@@H]1C[C@@H](O)[C@@H]2O` [Estriol], under setting [1], the “collision cross section in nitrogen” value is reported as 178.1 Å².
As for `CCC1COC(Cn2cncn2)(c2ccc(Cl)cc2Cl)O1` (centres undefined) [Etaconazole], the “collision cross section in nitrogen” value runs as follows: under setting [2], 175.4 Å²; under setting [3], 174.1 Å²; under setting [4], 189.3 Å².
For the compound `CCOc1nc(NC)nc(NC(=O)NS(=O)(=O)c2ccccc2C(=O)OC)n1` [Ethametsulfuron-methyl], the “collision cross section in nitrogen” value was 197.6 Å² under setting [3] and 196 Å² under setting [1].
For the compound `CCSCc1ccccc1OC(=O)NC` [Ethiofencarb], the “collision cross section in nitrogen” value under setting [4] is listed as 153.7 Å².
`CCOP(=S)(OCC)SCSP(=S)(OCC)OCC` [Ethion]: the “collision cross section in nitrogen” value under setting [4] is given as 182.3 Å².
Consider `CCc1cc(C(N)=S)ccn1` [Ethionamide], for which the “collision cross section in nitrogen” value is, setting by setting: under setting [2], 137.5 Å²; under setting [1], 135.2 Å².
For the compound `CCCCc1c(C)nc(NCC)nc1O` [Ethirimol], the “collision cross section in nitrogen” value is reported as 152.1 Å² under setting [2], 152 Å² under setting [3], 167.3 Å² under setting [4] and 155.2 Å² under setting [1].
Consider `C#C[C@]1(O)CC[C@H]2[C@@H]3CCC4=CC(=O)CC[C@]4(C)[C@H]3CC[C@@]21C` [Ethisterone], for which the “collision cross section in nitrogen” value was 180.2 Å² under setting [2] and 204.6 Å² under setting [4].
In the case of `CCCSP(=O)(OCC)SCCC` [Ethoprop], the “collision cross section in nitrogen” value under setting [2] came to 151.3 Å², the “collision cross section in nitrogen” value under setting [3] is 151.5 Å² and the “collision cross section in nitrogen” value under setting [4] was 169.5 Å².
As to `CCOc1ccc2c(c1)C(C)=CC(C)(C)N2` [Ethoxyquin], the “collision cross section in nitrogen” value by setting is: under setting [2], 153.1 Å²; under setting [3], 153.2 Å².
For `CCOC(=O)c1sc(N)nc1C(F)(F)F` [Ethyl 2-amino-4-(trifluoromethyl)-1,3-thiazole-5-carboxylate], the “collision cross section in nitrogen” value is, setting by setting: under setting [2], 155.3 Å²; under setting [3], 146.4 Å²; under setting [1], 140.9 Å².
As for `CCOC(=O)C(C#N)=C(c1ccccc1)c1ccccc1` [Ethyl 2-cyano-3,3-diphenylacrylate], the “collision cross section in nitrogen” value under setting [4] stood at 180.6 Å².
Consider `CCCCN(CCC(=O)OCC)C(C)=O` [Ethyl 3-(N-butylacetamido)propionate], for which the “collision cross section in nitrogen” value came to 149.3 Å² under setting [2] and 162 Å² under setting [4].
Take `CCOC(=O)c1cccc(O)c1` [Ethyl 3-hydroxybenzoate]: the “collision cross section in nitrogen” value under setting [1] is listed as 137.7 Å².
On to `CCOC(=O)C1=NOC(c2ccccc2)(c2ccccc2)C1` [Ethyl 5,5-diphenyl-2-isoxazoline-3-carboxylate], for which the “collision cross section in nitrogen” value is, setting by setting: under setting [3], 169.5 Å²; under setting [4], 187.8 Å².
On to `CCOC(=O)C1=NN(c2ccccc2)C(=O)C1` [Ethyl 5-oxo-1-phenyl-4,5-dihydro-1H-pyrazole-3-carboxylate], for which the “collision cross section in nitrogen” value was determined as 154.1 Å² under setting [2], 154.5 Å² under setting [3], 164.9 Å² under setting [4] and 155.5 Å² under setting [1].
In the case of `CCOC(=O)NCCC[Si](OCC)(OCC)OCC` [Ethyl [3-(triethoxysilyl)propyl]carbamate], under setting [4], the “collision cross section in nitrogen” value was determined as 171.4 Å².
On the same count and under the same terms, as for `CCOC(=O)CC(=O)c1ccccc1` [Ethyl benzoylacetate], the figure is 155.9 Å².
As for `CCCCCCCCCC(=O)OCC` [Ethyl decanoate], the “collision cross section in nitrogen” value under setting [1] is on record as 154.6 Å².
Regarding `CCN(CCO)CCO` [Ethyl diethanolamine], the “collision cross section in nitrogen” value by setting is: under setting [2], 125.6 Å²; under setting [3], 125.8 Å².
Turning to `CCCCCCCCCCCC(=O)OCC` [Ethyl dodecanoate], under setting [1], the “collision cross section in nitrogen” value is 162.3 Å².
For `CCCCCCCCCCCCCCCC(=O)OCC` [Ethyl hexadecanoate], under setting [1], the “collision cross section in nitrogen” value is recorded as 177.9 Å².
On the same count and under the same terms, the value for `CCCCCCCC(=O)OCC` [Ethyl octanoate] was 149.5 Å²; that for `CCCCCCCCCCCCCC(=O)OCC` [Ethyl tetradecanoate] was 169.8 Å².
Turning to `CS(=O)(=O)OCCOS(C)(=O)=O` [Ethylene dimethanesulfonate], the “collision cross section in nitrogen” value under setting [4] was found to be 144.8 Å².
Still for that read-out and setting: as for `C(COCC1CO1)OCC1CO1` (centres undefined) [Ethylene glycol diglycidyl ether], the figure is 135.8 Å²; as for `O=C(OCCOCCOCCOC(=O)c1ccccc1)c1ccccc1` [Ethylenebis(oxyethylene) dibenzoate], 189.7 Å².
